{"source": "ChEMBL document CHEMBL2413068", "about": "“Solid-phase synthesis of 5'-triphosphate 2'-5'-oligoadenylates analogs with 3'-O-biolabile groups and their evaluation as RNase L activators and antiviral drugs” (Bioorg Med Chem, 2013)", "key": {"[1]": {"molecular_target": "T1, 2-5A-dependent ribonuclease (Homo sapiens, UniProt Q05823)", "T1 sequence (Q05823 whole entry)": "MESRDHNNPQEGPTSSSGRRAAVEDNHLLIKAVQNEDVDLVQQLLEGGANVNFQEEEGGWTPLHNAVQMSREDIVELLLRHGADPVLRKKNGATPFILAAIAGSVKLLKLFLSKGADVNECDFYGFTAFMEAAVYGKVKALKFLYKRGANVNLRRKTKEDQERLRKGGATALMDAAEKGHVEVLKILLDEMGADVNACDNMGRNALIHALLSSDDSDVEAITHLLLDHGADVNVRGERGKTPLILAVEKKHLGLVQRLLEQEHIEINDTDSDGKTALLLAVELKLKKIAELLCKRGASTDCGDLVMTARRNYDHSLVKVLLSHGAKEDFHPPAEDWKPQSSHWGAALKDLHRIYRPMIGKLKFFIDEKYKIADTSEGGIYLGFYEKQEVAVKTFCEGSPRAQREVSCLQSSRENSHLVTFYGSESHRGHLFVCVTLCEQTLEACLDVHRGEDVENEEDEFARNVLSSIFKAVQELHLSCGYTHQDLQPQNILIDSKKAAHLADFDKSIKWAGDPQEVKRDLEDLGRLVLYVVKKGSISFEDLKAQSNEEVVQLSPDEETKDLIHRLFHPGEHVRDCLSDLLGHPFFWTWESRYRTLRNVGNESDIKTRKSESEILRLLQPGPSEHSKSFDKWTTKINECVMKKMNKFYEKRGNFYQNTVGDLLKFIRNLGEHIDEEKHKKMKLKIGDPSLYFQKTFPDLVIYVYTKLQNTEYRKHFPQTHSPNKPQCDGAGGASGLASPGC", "experiment": "Activation of human recombinant RNase L endonuclease activity using 6-FAM-UUAUCAAAUUCUUAUUUGCCCCAUUUUUUUGGUUUA-BHQ-1 as substrate assessed as substrate cleavage measured for 50 mins by FRET assay"}, "Vero [2]": {"tested_on": "Vero", "experiment": "Cytotoxicity against Respiratory syncytial virus A2 infected african green monkey Vero cells at 33.3 uM by Hucker's crystal violet staining", "format": "cell-based", "conditions": "chlorocebus sabaeus"}, "[3]": {"experiment": "Cytotoxicity against human A549 cells after 72 hrs by Cell Titer-Glo assay", "format": "cell-based"}, "[4]": {"tested_on": "Respiratory syncytial virus", "experiment": "Antiviral activity against Respiratory syncytial virus A2 infected in african green monkey Vero cells assessed as reduction of virus-induced cytopathic effect at >= 15 nM pretreated 2 hrs before viral infection measured daily using hucker's crystal violet staining", "format": "functional, organism-based"}, "Influenza A virus": {"tested_on": "Influenza A virus", "experiment": "Antiviral activity against Influenza A virus (A/WSN/1933(H1N1)) infected in human A549 cells assessed as reduction of viral RNA level my measuring luminescence after 72 hrs by RT-PCR analysis", "format": "functional, organism-based", "conditions": "A549, 72 h"}, "[5]": {"experiment": "Selectivity index, ratio of CC50 for human A549 cells to EC50 for Influenza A virus (A/WSN/1933(H1N1))", "format": "toxicity, cell-based", "conditions": "read-out: Ratio CC50/EC50"}, "Vero [6]": {"tested_on": "Vero", "experiment": "Cytotoxicity against african green monkey Vero cells assessed as cell viability up to 100 uM by Hucker's crystal violet staining", "format": "cell-based", "conditions": "chlorocebus sabaeus"}}, "note": "Calls of active or inactive are those of the source. The calls are words filed in the database; no cut-off is given here.", "data": [{"smiles": "Nc1ncnc2ncn([C@@H]3O[C@H](COP(=O)(O)O[C@@H]4[C@H](O)[C@@H](COP(=O)(O)O[C@@H]5[C@H](O)[C@@H](COP(=O)(O)O[C@@H]6[C@H](O)[C@@H](COP(=O)(O)OP(=O)(O)OP(=O)(O)O)O[C@H]6n6cnc7ncnc(N)c76)O[C@H]5n5cnc6ncnc(N)c65)O[C@H]4n4cnc5ncnc(N)c54)[C@@H](O)[C@H]3O)c12", "values": [{"measurement": "EC50", "setting": "[1]", "result": 6.1, "unit": "nM"}]}, {"smiles": "CC(C)(C)C(=O)OCO[C@H]1[C@@H](O)[C@H](n2cnc3ncnc(N)c32)O[C@@H]1COP(=O)(O)O[C@@H]1[C@H](OCOC(=O)C(C)(C)C)[C@@H](COP(=O)(O)O[C@@H]2[C@H](OCOC(=O)C(C)(C)C)[C@@H](COP(=O)(O)O[C@@H]3[C@H](OCOC(=O)C(C)(C)C)[C@@H](COP(=O)(O)OP(=O)(O)OP(=O)(O)O)O[C@H]3n3cnc4ncnc(N)c43)O[C@H]2n2cnc3ncnc(N)c32)O[C@H]1n1cnc2ncnc(N)c21", "values": [{"measurement": "EC50", "setting": "[1]", "result": 241, "unit": "nM"}]}, {"smiles": "CC(C)(C)C(=O)OCO[C@H]1[C@@H](O)[C@H](n2cnc3ncnc(N)c32)O[C@@H]1COP(=O)(O)O[C@@H]1[C@H](OCOC(=O)C(C)(C)C)[C@@H](COP(=O)(O)O[C@@H]2[C@H](OCOC(=O)C(C)(C)C)[C@@H](COP(=O)(O)OP(=O)(O)OP(=O)(O)O)O[C@H]2n2cnc3ncnc(N)c32)O[C@H]1n1cnc2ncnc(N)c21", "values": [{"measurement": "Activity", "setting": "Vero [2]", "result": "Toxic"}, {"measurement": "CC50 at 72 h", "setting": "[3]", "result": 47000, "unit": "nM"}, {"measurement": "Activity", "setting": "[4]", "result": "Active"}, {"measurement": "EC50", "setting": "Influenza A virus", "result": 14600, "unit": "nM"}, {"measurement": "selectivity ratio", "setting": "[5]", "result": 3}, {"measurement": "Activity", "setting": "Vero [6]", "result": "Non-toxic"}, {"measurement": "EC50", "setting": "[1]", "result": 19.1, "unit": "nM"}]}]}
